{"source": "ChEMBL document CHEMBL1201862", "about": "“PubChem BioAssay data set” (2004)", "key": {"[1]": {"target": "T1, Small ubiquitin-related modifier 1 (Homo sapiens, UniProt P63165)", "T1 sequence (P63165 whole entry)": "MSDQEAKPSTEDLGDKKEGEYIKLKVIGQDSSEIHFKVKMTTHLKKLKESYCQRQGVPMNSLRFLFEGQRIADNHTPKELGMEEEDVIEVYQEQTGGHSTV", "assay": "SUMO1 protein-protein binding blockers, potency – biochemical, FRET, dose response (AID 624383)", "type": "functional", "conditions": "read-out: IC50_Mean"}, "[2]": {"target": "T1, Small ubiquitin-related modifier 1", "assay": "SUMO1 protein interaction blockers, potency – biochemical, fluorescence polarization, uHTS hits, dose response (AID 624382)", "type": "functional", "conditions": "read-out: IC50_Mean"}, "[3]": {"target": "Large T antigen (Simian virus 40, UniProt P03070)", "sequence (P03070 whole entry)": "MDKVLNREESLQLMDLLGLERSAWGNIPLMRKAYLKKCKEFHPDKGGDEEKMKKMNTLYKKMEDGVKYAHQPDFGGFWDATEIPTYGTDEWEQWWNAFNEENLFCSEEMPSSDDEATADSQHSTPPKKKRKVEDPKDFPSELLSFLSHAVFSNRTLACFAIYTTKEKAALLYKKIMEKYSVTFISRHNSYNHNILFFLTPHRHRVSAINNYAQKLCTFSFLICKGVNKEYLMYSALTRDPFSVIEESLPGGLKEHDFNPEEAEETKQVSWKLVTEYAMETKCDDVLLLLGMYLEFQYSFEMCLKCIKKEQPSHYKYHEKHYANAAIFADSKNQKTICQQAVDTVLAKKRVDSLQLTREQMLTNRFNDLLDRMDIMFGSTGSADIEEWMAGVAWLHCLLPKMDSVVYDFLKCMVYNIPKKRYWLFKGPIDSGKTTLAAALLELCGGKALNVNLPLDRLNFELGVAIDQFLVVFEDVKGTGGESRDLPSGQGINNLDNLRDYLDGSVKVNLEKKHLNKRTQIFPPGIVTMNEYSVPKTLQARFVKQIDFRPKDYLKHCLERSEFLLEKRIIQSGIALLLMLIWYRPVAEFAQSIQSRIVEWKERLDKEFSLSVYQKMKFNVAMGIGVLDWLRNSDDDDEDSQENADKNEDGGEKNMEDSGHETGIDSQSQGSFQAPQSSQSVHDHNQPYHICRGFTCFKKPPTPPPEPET", "type": "functional, Betapolyomavirus macacae"}, "[4]": {"target": "T2, Carboxy-terminal domain RNA polymerase II polypeptide A small phosphatase 1 (Homo sapiens, UniProt Q9GZU7)", "T2 sequence (Q9GZU7 whole entry)": "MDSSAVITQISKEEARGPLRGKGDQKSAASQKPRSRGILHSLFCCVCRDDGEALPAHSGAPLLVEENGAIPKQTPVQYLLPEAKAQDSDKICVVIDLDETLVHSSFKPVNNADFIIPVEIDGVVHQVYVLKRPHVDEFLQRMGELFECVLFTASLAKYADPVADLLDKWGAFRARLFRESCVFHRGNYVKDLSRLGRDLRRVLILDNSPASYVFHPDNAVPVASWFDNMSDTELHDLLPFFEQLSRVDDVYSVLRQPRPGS", "assay": "CTDSP1 inhibitors, concentration-response, biochemical, absorbance readout, ultra-high-throughput screen actives (AID 540297)", "type": "functional"}, "[5]": {"assay": "HIV-1 AD8 envelope cell-cell fusion blockers – cherry-pick, dose response (AID 652062);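 also: potency is for inhibitors of fusion seen as a drop in luminescence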", "type": "functional, cell-based"}, "[6]": {"assay": "blockers of HIV-1 ZM109 envelope-driven cell-cell fusion – HeLa effector, CEM target cells, luciferase, cherry-pick, dose response (AID 652058)", "type": "functional, cell-based"}, "[7]": {"assay": "off-target signal loss in HeLa-CEM21 co-culture – HeLa F-luc CTL cells, cherry-picked, counter-screen for HIV-1 Env fusion inhibitor project, dose response (AID 652040);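 also: potency for signal decrease marking cytotoxic or nonspecific inhibition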", "type": "functional, cell-based"}, "[8]": {"assay": "blockers of HIV-1 envelope-mediated cell-cell fusion – cherry-pick, dose response (AID 652057)", "type": "functional, cell-based"}, "[9]": {"test_system": "Vero", "assay": "cells", "type": "functional", "conditions": "Chlorocebus sabaeus"}, "[10]": {"test_system": "Vero", "assay": "cells", "type": "functional, cell-based", "conditions": "Chlorocebus sabaeus"}, "[11]": {"target": "T3, Microphthalmia-associated transcription factor (Homo sapiens, UniProt O75030)", "T3 sequence (O75030 whole entry)": "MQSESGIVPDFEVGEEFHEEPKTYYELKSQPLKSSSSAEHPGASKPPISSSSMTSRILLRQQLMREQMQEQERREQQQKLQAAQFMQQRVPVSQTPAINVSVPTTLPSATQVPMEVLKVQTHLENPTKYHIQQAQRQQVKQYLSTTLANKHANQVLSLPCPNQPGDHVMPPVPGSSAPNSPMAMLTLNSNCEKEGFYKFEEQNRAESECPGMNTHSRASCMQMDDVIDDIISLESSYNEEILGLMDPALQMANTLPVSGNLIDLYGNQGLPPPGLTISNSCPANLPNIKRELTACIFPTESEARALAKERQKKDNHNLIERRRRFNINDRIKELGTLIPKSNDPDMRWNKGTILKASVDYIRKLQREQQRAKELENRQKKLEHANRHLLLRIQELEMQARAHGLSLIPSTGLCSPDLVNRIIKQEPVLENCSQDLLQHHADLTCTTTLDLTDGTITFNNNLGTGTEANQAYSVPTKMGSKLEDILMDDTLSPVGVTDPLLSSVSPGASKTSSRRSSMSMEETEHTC", "assay": "reducers of TRPM1 reporter luminescence, concentration series – cell-based, SK-MEL-5, cherry-picked, set 3, MITF inhibitor project, dose response (AID 493073)", "type": "functional"}, "[12]": {"target": "Cytochrome P450 3A4 (Homo sapiens, UniProt P08684)", "sequence (P08684 whole entry)": "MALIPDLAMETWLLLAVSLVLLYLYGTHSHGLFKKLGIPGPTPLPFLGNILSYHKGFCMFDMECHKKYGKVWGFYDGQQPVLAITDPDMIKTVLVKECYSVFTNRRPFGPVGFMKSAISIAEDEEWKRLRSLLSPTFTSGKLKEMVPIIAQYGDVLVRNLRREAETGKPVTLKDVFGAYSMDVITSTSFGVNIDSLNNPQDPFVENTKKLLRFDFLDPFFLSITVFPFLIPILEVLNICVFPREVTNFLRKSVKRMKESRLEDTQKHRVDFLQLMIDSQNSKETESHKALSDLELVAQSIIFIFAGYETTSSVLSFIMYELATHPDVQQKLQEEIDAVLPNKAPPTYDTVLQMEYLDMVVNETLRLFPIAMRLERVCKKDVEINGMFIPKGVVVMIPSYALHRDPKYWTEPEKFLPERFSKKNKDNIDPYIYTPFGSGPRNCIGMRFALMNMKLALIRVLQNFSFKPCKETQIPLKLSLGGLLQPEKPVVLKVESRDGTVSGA", "conditions": "Potency"}, "[13]": {"assay": "microbe, parasite or virus in culture", "type": "functional", "conditions": "Mycobacterium tuberculosis"}, "[14]": {"assay": "viability of uninfected HEp-2 cells – cell-based, HTS, cytotoxicity control for RSV inhibitor project, dose response (AID 2410)", "type": "functional", "conditions": "human respiratory syncytial virus"}, "[15]": {"assay": "cells", "type": "functional, cell-based"}, "[16]": {"assay": "cells", "type": "functional, cell-based", "remark": "listed apart in the source"}, "[17]": {"target": "Heat shock protein HSP 90-alpha (Homo sapiens, UniProt P07900)", "type": "functional, organism-based"}, "[18]": {"target": "Paired box protein Pax-8 (Homo sapiens, UniProt Q06710)", "sequence (Q06710 whole entry)": "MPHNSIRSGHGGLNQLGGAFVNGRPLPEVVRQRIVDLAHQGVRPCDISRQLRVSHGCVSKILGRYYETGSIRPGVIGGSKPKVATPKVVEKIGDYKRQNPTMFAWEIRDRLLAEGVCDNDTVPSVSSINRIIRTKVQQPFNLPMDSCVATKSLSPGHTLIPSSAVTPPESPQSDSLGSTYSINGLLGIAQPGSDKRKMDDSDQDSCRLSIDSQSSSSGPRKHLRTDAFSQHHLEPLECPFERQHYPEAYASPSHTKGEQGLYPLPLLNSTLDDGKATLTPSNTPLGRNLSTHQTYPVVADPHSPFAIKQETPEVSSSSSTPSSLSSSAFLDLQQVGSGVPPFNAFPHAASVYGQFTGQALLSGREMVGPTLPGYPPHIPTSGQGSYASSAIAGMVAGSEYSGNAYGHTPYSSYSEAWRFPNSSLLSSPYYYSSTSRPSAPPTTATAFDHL", "assay": "PAX8 transcriptional activity inhibition in RMG-I – RMG-I cells, luciferase, cherry-pick, dose response (AID 687027);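 also: luciferase reporter driven by Pax8 target thyroperoxidase promoter measured by SteadyGlo luminescence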", "type": "functional, cell-based"}}, "note": "The source made the active and inactive calls."}
{"compound": "O=C(NCCN1CCC(n2c(O)nc3ccccc32)CC1)c1cccc2c1-c1ccccc1C2=O", "values": [{"measurement": "IC50", "setting": "[1]", "value": "17.9 µM (active)"}, {"measurement": "IC50", "setting": "[2]", "value": "> 66.6 µM (inactive)"}]}
{"compound": "COc1cc(/C=C2\\C(C)=C(C#N)c3nc(N)c(C#N)c(C)c32)ccc1OCC(=O)O", "values": [{"measurement": "IC50", "setting": "[3]", "value": "58.1 µM (active)"}]}
{"compound": "COc1ccc(OC)c(NC(=O)CSc2ncnc3sc(C)cc23)c1", "values": [{"measurement": "IC50", "setting": "[4]", "value": "5.46 µM (active)"}]}
{"compound": "O=C1CC(C(=O)N(CC2CCCO2)C(C(=O)NC2CCCCC2)c2ccncc2)CS1", "note": "(stereo not given)", "values": [{"measurement": "AC50", "setting": "[5]", "value": "37.8 µM (active)"}, {"measurement": "AC50", "setting": "[6]", "value": "6.85 µM (active)"}, {"measurement": "AC50", "setting": "[7]", "value": "30.2 µM (active)"}, {"measurement": "AC50", "setting": "[8]", "value": "7.23 µM (active)"}]}
{"compound": "CCN(CC)S(=O)(=O)c1ccc(N2CCCC2)c(NC(=O)c2ccc([N+](=O)[O-])o2)c1", "values": [{"measurement": "CC50", "setting": "[9]", "value": "17.8 µM (active)"}, {"measurement": "IC50", "setting": "[10]", "value": "> 25 µM (active)"}, {"measurement": "AC50", "setting": "[11]", "value": "3.18 µM (active)"}]}
{"compound": "CCCCCCN(C(=O)CCCCCN1C(=O)NC(c2ccc(-c3ccccc3)cc2)C(C(=O)OCc2ccccc2)=C1C)C(C(=O)NCCCC)c1ccccc1", "note": "(stereo not given)", "values": [{"measurement": "AC50", "setting": "[12]", "value": "2 µM (inconclusive)"}]}
{"compound": "Nc1ccc(-c2ccc(N)c(O)c2)cc1O", "values": [{"measurement": "AC50", "setting": "[12]", "value": "31.6 µM (inconclusive)"}]}
{"compound": "COc1cc(OC)cc(C(=O)N[C@H](C(=O)NCCc2c[nH]c3ccccc23)C(C)C)c1", "values": [{"measurement": "AC50", "setting": "[6]", "value": "16.8 µM (active)"}, {"measurement": "AC50", "setting": "[7]", "value": "35.6 µM (active)"}, {"measurement": "AC50", "setting": "[8]", "value": "11 µM (active)"}]}
{"compound": "CCN1CSC(=S)N(Cc2ccccc2)C1", "values": [{"measurement": "CC50", "setting": "[9]", "value": "16.1 µM (active)"}, {"measurement": "CC50", "setting": "[13]", "value": "20.7 µM (active)"}]}
{"compound": "O=C(N/N=C(\\c1ccccc1)c1cccnc1)c1cc(O)ccc1O", "values": [{"measurement": "IC50", "setting": "[3]", "value": "6.14 µM (active)"}]}
{"compound": "N#C/C(=C/c1ccc(N2CCCCC2)o1)C(=O)NCCc1c[nH]c2ccccc12", "values": [{"measurement": "CC50", "setting": "[9]", "value": "> 25 µM (active)"}, {"measurement": "CC50", "setting": "[14]", "value": "49.6 µM (active)"}]}
{"compound": "Cc1ccccc1CN1C(=O)CSc2ccc(C(=O)N3CCOCC3)cc21", "values": [{"measurement": "EC50", "setting": "[15]", "value": "> 350 µM (not active)"}, {"measurement": "EC50", "setting": "[16]", "value": "> 350 µM (not active)"}]}
{"compound": "CCCCCCCCCCCCCC(=O)NO", "values": [{"measurement": "AC50", "setting": "[17]", "value": "2.71 µM (active)"}]}
{"compound": "CC(=O)c1ccc(N2/C(=N/C(=O)COc3ccccc3)SC3CS(=O)(=O)CC32)cc1", "note": "(stereo not given)", "values": [{"measurement": "EC50", "setting": "[15]", "value": "> 350 µM (not active)"}, {"measurement": "EC50", "setting": "[16]", "value": "> 350 µM (not active)"}]}
{"compound": "C[C@]12CC[C@H](O)C[C@@H]1CC[C@@H]1[C@@H]2CC[C@]2(C)[C@@H](C3=CC(=O)OC3)CC[C@]12O", "values": [{"measurement": "CC50", "setting": "[9]", "value": "1.65 µM (active)"}, {"measurement": "IC50", "setting": "[10]", "value": "< 0.05 µM (active)"}, {"measurement": "AC50", "setting": "[18]", "value": "2.09 µM (active)"}]}
{"compound": "O=C(NCCCN1CCOCC1)c1ccc(/C=C2\\Oc3ccccc3N(Cc3ccccc3F)C2=O)cc1", "values": [{"measurement": "IC50", "setting": "[10]", "value": "21.9 µM (active)"}]}
{"compound": "COc1cccc(/C=N/NC(=O)CSc2ccccc2C)c1O", "values": [{"measurement": "EC50", "setting": "[15]", "value": "30.4 µM (active)"}, {"measurement": "EC50", "setting": "[16]", "value": "52.4 µM (active)"}]}
{"compound": "CCOC(=O)Cc1csc(SCC(=O)Nc2sc3c(c2C(N)=O)CCC3)n1", "values": [{"measurement": "IC50", "setting": "[4]", "value": "4.63 µM (active)"}]}
{"compound": "CS(=O)(=O)c1ccc2nc(NC(=O)C3CC(=O)N(c4ccc(F)cc4)C3)sc2c1", "note": "(stereo not given)", "values": [{"measurement": "EC50", "setting": "[15]", "value": "> 350 µM (not active)"}, {"measurement": "EC50", "setting": "[16]", "value": "> 350 µM (not active)"}]}
